{"source": "patent US12171768B2", "about": "“IRAK4 degraders and uses thereof” (priority 2021, dated 2024)", "key": {"[1]": {"test_system": "TLR agonist (lipopolysaccharide and R848) and IL-1β-induced proinflammatory cytokine production", "assay": "In vitro cytokine release assays in PBMCs", "type": "cell-based", "conditions": "LPS"}, "IRAK4 [2]": {"target": "T1, IRAK4 (Rattus norvegicus, UniProt A0A8I6G1H3)", "T1 construct": "endogenous in cells; host or cells: rat splenocytes", "T1 sequence (A0A8I6G1H3 1-461)": "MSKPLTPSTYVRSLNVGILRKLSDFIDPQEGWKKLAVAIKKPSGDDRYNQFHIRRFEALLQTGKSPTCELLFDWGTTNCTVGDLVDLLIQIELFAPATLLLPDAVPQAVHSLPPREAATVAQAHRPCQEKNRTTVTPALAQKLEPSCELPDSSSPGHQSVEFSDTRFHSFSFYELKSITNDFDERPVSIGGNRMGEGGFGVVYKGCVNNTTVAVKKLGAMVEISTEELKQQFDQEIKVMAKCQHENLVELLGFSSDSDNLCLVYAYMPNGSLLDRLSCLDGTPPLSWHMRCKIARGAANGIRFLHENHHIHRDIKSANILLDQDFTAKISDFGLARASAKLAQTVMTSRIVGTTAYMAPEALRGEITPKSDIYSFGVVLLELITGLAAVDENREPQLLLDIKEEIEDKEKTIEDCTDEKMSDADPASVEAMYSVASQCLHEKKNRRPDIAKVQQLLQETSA", "assay": "In vitro IRAK4 degradation in rat splenocytes", "type": "cell-based", "conditions": "read-out: DC50, IRAK4 degradation"}, "[3]": {"assay": "Phase 1 MAD plasma pharmacokinetics", "type": "in vivo, human", "conditions": "for Cmax at 14 days / concentration at 24 h / Tmax at 14 days: human, plasma, oral, steady-state (Day 14); for Cmax at 14 days / concentration at 24 h: geometric mean (% CV); for concentration at 24 h: read-out: Ctrough; for Tmax at 14 days: median (range)", "text": "The selection of Compound A doses will be guided by the safety, tolerability, and PK data in humans from the SAD portion of the study. […] Increasing dose levels in subsequent MAD cohorts will be identified based on the safety and PK observed in the previous SAD and MAD cohorts. Dose escalation between each MAD cohort will not exceed 100%.\nHowever, the dosing interval and the duration of dosing may change following review of the safety, PK, and PD data from Part A. […]"}, "cytochrome P450 (CYP)": {"test_system": "cytochrome P450 (CYP)", "assay": "In vitro and in vivo metabolism studies", "type": "in vitro ADME"}, "[4]": {"test_system": "imiquimod psoriasis model", "assay": "Imiquimod psoriasis model (TLR 7/8-dependent)", "type": "in vivo, murine"}, "[5]": {"assay": "In vivo pharmacokinetic studies in rats, dogs and monkeys"}, "IRAK4 [6]": {"target": "T2, IRAK4 (Canis lupus familiaris, UniProt A0A8I3S726)", "T2 construct": "endogenous in cells; host or cells: dog PBMCs (A3); PBMCs and skin of dosed dogs (A12)", "T2 sequence (A0A8I3S726 1-460)": "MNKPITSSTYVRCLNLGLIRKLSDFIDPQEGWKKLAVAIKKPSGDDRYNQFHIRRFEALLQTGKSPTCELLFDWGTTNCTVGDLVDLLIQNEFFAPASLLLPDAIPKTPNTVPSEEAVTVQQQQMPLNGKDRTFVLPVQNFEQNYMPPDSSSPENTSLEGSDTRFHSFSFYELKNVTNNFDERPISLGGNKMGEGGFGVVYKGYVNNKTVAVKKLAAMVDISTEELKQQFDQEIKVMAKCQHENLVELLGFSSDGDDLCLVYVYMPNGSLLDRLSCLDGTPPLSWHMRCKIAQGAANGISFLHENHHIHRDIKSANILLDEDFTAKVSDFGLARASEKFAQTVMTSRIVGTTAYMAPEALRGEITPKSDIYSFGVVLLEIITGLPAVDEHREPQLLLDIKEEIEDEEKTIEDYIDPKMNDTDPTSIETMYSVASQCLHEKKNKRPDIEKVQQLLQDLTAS", "assay": "In vitro IRAK4 degradation in dog PBMCs", "type": "cell-based", "conditions": "read-out: DC50, IRAK4 degradation"}, "Plasma protein binding": {"assay": "Plasma protein binding", "type": "in vitro ADME", "conditions": "across nonclinical species and humans"}, "[7]": {"assay": "Excretion study in bile duct-cannulated (BDC) rats", "type": "in vivo"}, "[8]": {"assay": "Phase 1 SAD plasma pharmacokinetics", "type": "in vivo, human", "conditions": "for Tmax: healthy volunteers", "text": "Initially, a dose range of Compound A in single ascending dose (SAD) escalation cohorts will be explored in adult HVs (Part A). […] Safety and PK data from at least 3 completed SAD cohorts will determine initiation of and appropriate doses for the 14-day multiple ascending dose (MAD) portion of the study (Part B).\nThe graphical assessment of dose proportionality will be performed for AUC and Cmax. Relative bioavailability of food effect will be assessed based on AUC and Cmax."}}, "note": "Where two headings read alike, the source gives them in different places."}
{"smiles": "Cn1c(=O)n([C@@H]2CCC(=O)NC2=O)c2cccc(C#CCOC3CCN(C[C@H]4CC[C@H](n5cc(NC(=O)c6cnn7ccc(N8C[C@H]9C[C@@H]8CO9)nc67)c(C(F)F)n5)CC4)CC3)c21", "note": "[Compound A, 5-((1R,4R)-2-oxa-5-azabicyclo[2.2.1]heptan-5-yl)-N-(3-(difluoromethyl)-1-((1r,4R)-4-((4-((3-(1-(2,6-dioxopiperidin-3-yl)-3-methyl-2-oxo-2,3-dihydro-1H-benzo[d]imidazol-4-yl)prop-2-yn-1-yl)oxy)piperidin-1-yl)methyl)cyclohexyl)-1H-pyrazol-4-yl)pyrazolo[1,5-a]pyrimidine-3-carboxamide]", "values": [{"measurement": "IC50, inhibition of proinflammatory cytokine production (IL-6, TNF-α, GM-CSF, IL-8)", "setting": "[1]", "result": "low nM range"}, {"measurement": "DC50", "setting": "IRAK4 [2]", "result": "< 0.01", "unit": "µM"}, {"measurement": "Day of dosing by which steady-state was reached", "setting": "[3]; MAD, once daily dosing", "result": "≤ 7", "unit": "days"}, {"measurement": "Cmax at 14 days", "setting": "[3]; 25 mg QD", "result": 0.0082, "unit": "µg/mL"}, {"measurement": "concentration at 24 h", "setting": "[3]; 25 mg QD", "result": 0.00503, "unit": "µg/mL"}, {"measurement": "Tmax at 14 days", "setting": "[3]; 25 mg QD", "result": 8, "unit": "h"}, {"measurement": "Cmax at 14 days", "setting": "[3]; 50 mg QD", "result": 0.012, "unit": "µg/mL"}, {"measurement": "concentration at 24 h", "setting": "[3]; 50 mg QD", "result": 0.00728, "unit": "µg/mL"}, {"measurement": "Tmax at 14 days", "setting": "[3]; 50 mg QD", "result": 8, "unit": "h"}, {"measurement": "Cmax at 14 days", "setting": "[3]; 100 mg QD", "result": 0.0161, "unit": "µg/mL"}, {"measurement": "concentration at 24 h", "setting": "[3]; 100 mg QD", "result": 0.00981, "unit": "µg/mL"}, {"measurement": "Tmax at 14 days", "setting": "[3]; 100 mg QD", "result": 8, "unit": "h"}, {"measurement": "Cmax at 14 days", "setting": "[3]; 200 mg QD", "result": 0.0252, "unit": "µg/mL"}, {"measurement": "concentration at 24 h", "setting": "[3]; 200 mg QD", "result": 0.0188, "unit": "µg/mL"}, {"measurement": "Tmax at 14 days", "setting": "[3]; 200 mg QD", "result": 8, "unit": "h"}, {"measurement": "Primary metabolizing enzyme", "setting": "cytochrome P450 (CYP)", "result": "primarily metabolized by CYP3A4"}, {"measurement": "Metabolic pathway", "setting": "cytochrome P450 (CYP); in vitro and in vivo", "result": "oxidative metabolism via cytochrome P450 (CYP)"}, {"measurement": "Degradation of IRAK4 in the spleen and skin", "setting": "[4]; mouse, in vivo", "result": "dose-dependent degradation"}, {"measurement": "Skin thickness", "setting": "[4]; mouse, in vivo", "result": "reduction in skin thickness"}, {"measurement": "IL-1β in the skin", "setting": "[4]; p<0.0001", "result": "significant reduction"}, {"measurement": "IL-6 in the skin", "setting": "[4]; p<0.05, 300 mg/kg only", "result": "significant reduction"}, {"measurement": "Bioavailability", "setting": "[5]", "result": "low to moderate"}, {"measurement": "Clearance", "setting": "[5]", "result": "moderate to high"}, {"measurement": "Terminal half-life", "setting": "[5]", "result": "moderate"}, {"measurement": "Volume of distribution at steady state", "setting": "[5]", "result": "high"}, {"measurement": "DC50", "setting": "IRAK4 [6]", "result": "< 0.01", "unit": "µM"}, {"measurement": "Plasma protein binding", "setting": "Plasma protein binding", "result": "highly bound"}, {"measurement": "Biliary and intestinal excretion as parent drug", "setting": "[7]", "result": "minor to moderate"}, {"measurement": "Renal clearance", "setting": "[7]", "result": "negligible"}, {"measurement": "Dose-dependent plasma exposures", "setting": "[8]; SAD", "result": "plateaued after 1000 mg"}, {"measurement": "half-life", "setting": "[8]; human, plasma, oral, after single dosing, across SAD cohorts", "result": "25 to 40", "unit": "h"}, {"measurement": "Tmax", "setting": "[8]; human, plasma, SAD 1, single oral dose 25 mg", "result": 8, "unit": "h"}, {"measurement": "Tmax", "setting": "[8]; human, plasma, SAD 2, single oral dose 75 mg", "result": 7, "unit": "h"}, {"measurement": "Tmax", "setting": "[8]; human, plasma, SAD 3, single oral dose 150 mg", "result": 9, "unit": "h"}, {"measurement": "Tmax", "setting": "[8]; human, plasma, SAD 4, single oral dose 300 mg", "result": 8, "unit": "h"}, {"measurement": "Tmax", "setting": "[8]; human, plasma, SAD 6, single oral dose 1000 mg", "result": 20, "unit": "h"}]}
